Test in all cases: relative viability (nuclei count vs DMSO), 5 days (fraction); higher = more cells survive
Compound in experiment [1]: C1/C(=C\C2=CC=CS2)/C(=O)/C(=C/C3=CC=CS3)/C1 + CS(=O)(=O)CCNCc1ccc(-c2ccc3ncnc(Nc4ccc(OCc5cccc(F)c5)c(Cl)c4)c3c2)o1 [Lapatinib] (partner 2 µM)
The essentials: (§1)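 Dosing by pin tool came one day after lung cancer cell lines were seeded in 1536-well plates, using either one drug or a fixed anchor-drug dose plus five library-drug doses (not always all listed) in √10 steps. After 5 days, nuclei were counted on 4× images. Relative viability is treated-well nuclei count divided by vehicle-well nuclei count, and values are medians of duplicate plates.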

Compound in experiment [2]: C1/C(=C\C2=CC=CS2)/C(=O)/C(=C/C3=CC=CS3)/C1 + NC(=O)Nc1cc(-c2cccc(F)c2)sc1C(=O)N[C@H]1CCCNC1 [AZD7762] (partner 0.2 µM)
The essentials:
as §1

Compound in experiment [3]: C[C@]12O[C@H](C[C@]1(O)CO)n1c3ccccc3c3c4c(c5c6ccccc6n2c5c31)CNC4=O [Lestaurtinib] + CC(=O)Nc1cccc(-n2c(=O)n(C3CC3)c(=O)c3c(Nc4ccc(I)cc4F)n(C)c(=O)c(C)c32)c1 [Trametinib] (partner 0.02 µM)
The essentials: as §1

Compound in the experiment “Lestaurtinib + Olaparib”: C[C@]12O[C@H](C[C@]1(O)CO)n1c3ccccc3c3c4c(c5c6ccccc6n2c5c31)CNC4=O [Lestaurtinib] + O=C(c1cc(Cc2n[nH]c(=O)c3ccccc23)ccc1F)N1CCN(C(=O)C2CC2)CC1 [Olaparib] (partner 8 µM)
The gist of the method:
as §1

For NCI-H1975, the relative viability is 1.01 in experiment [1] (first compound 0.2 µM); 0.789 in experiment [1] (first compound 0.6325 µM); 0.966 in experiment [1] (first compound 2 µM); 0.613 in experiment [1] (first compound 6.325 µM); 0.823 in experiment [1] (first compound 20 µM); 0.826 in experiment [2] (first compound 0.2 µM). In addition, the relative viability in experiment [2] (first compound 0.6325 µM) came to 0.801; in experiment [2] (first compound 2 µM), 0.656; in experiment [2] (first compound 6.325 µM), 0.618; in experiment [2] (first compound 20 µM) it was 0.763; in experiment [3] (first compound 0.005 µM), 0.344; in experiment [3] (first compound 0.01581 µM), 0.33. The relative viability was determined as 0.348 in experiment [3] (first compound 0.05 µM); 0.262 in experiment [3] (first compound 0.1581 µM); 0.209 in experiment [3] (first compound 0.5 µM); 0.802 with Lestaurtinib + Olaparib (first compound 0.005 µM); 0.856 with Lestaurtinib + Olaparib (first compound 0.01581 µM); 0.651 with Lestaurtinib + Olaparib (first compound 0.05 µM). In addition, the relative viability with Lestaurtinib + Olaparib (first compound 0.1581 µM) stood at 0.757; with Lestaurtinib + Olaparib (first compound 0.5 µM), 0.408.

As for NCI-H1993, the relative viability in experiment [1] (first compound 0.2 µM) amounted to 0.815; in experiment [1] (first compound 0.6325 µM), 0.783; in experiment [1] (first compound 2 µM) it was 0.731; in experiment [1] (first compound 6.325 µM) it was 0.685; in experiment [1] (first compound 20 µM) it was 0.781; in experiment [2] (first compound 0.2 µM), 0.783. Further, the relative viability in experiment [2] (first compound 0.6325 µM) was found to be 0.747; in experiment [2] (first compound 2 µM), 0.958; in experiment [2] (first compound 6.325 µM), 0.62; in experiment [2] (first compound 20 µM) it was 0.499; in experiment [3] (first compound 0.005 µM) it was 0.553; in experiment [3] (first compound 0.01581 µM), 0.505. Moreover, the relative viability in experiment [3] (first compound 0.05 µM) is 0.483; in experiment [3] (first compound 0.1581 µM), 0.498; in experiment [3] (first compound 0.5 µM), 0.418; with Lestaurtinib + Olaparib (first compound 0.005 µM) it was 0.76; in the experiment with Lestaurtinib + Olaparib (first compound 0.01581 µM), 1.16; with Lestaurtinib + Olaparib (first compound 0.05 µM), 1.14. Moreover, the relative viability with Lestaurtinib + Olaparib (first compound 0.1581 µM) came out at 1.04; with Lestaurtinib + Olaparib (first compound 0.5 µM) it was 0.463.

For the cell line NCI-H2085, the relative viability in experiment [1] (first compound 0.2 µM) stood at 0.876; in experiment [1] (first compound 0.6325 µM), 0.768; in experiment [1] (first compound 2 µM), 0.876; in experiment [1] (first compound 6.325 µM), 0.692; in experiment [1] (first compound 20 µM), 0.701; in experiment [2] (first compound 0.2 µM), 1.03. Also, the relative viability was determined as 1.05 in experiment [2] (first compound 0.6325 µM); 0.926 in experiment [2] (first compound 2 µM); 0.932 in experiment [2] (first compound 6.325 µM); 0.932 in experiment [2] (first compound 20 µM); 0.476 in experiment [3] (first compound 0.005 µM); 0.514 in experiment [3] (first compound 0.01581 µM). Further, the relative viability in experiment [3] (first compound 0.05 µM) came to 0.558; in experiment [3] (first compound 0.1581 µM), 0.652; in experiment [3] (first compound 0.5 µM), 0.46; in the experiment with Lestaurtinib + Olaparib (first compound 0.005 µM), 0.804; in the experiment with Lestaurtinib + Olaparib (first compound 0.01581 µM), 0.755; in the experiment with Lestaurtinib + Olaparib (first compound 0.05 µM), 0.835. The relative viability with Lestaurtinib + Olaparib (first compound 0.1581 µM) was found to be 0.935; with Lestaurtinib + Olaparib (first compound 0.5 µM), 0.84.

Regarding NCI-H2087, the relative viability in experiment [1] (first compound 0.2 µM) stood at 0.866; in experiment [1] (first compound 0.6325 µM), 0.825; in experiment [1] (first compound 2 µM), 1.08; in experiment [1] (first compound 6.325 µM) it was 0.894; in experiment [1] (first compound 20 µM) it was 1.09; in experiment [2] (first compound 0.2 µM), 1.46. For the same cell line, the relative viability in experiment [2] (first compound 0.6325 µM) is 1.29; in experiment [2] (first compound 2 µM), 1.18; in experiment [2] (first compound 6.325 µM), 1.17; in experiment [2] (first compound 20 µM), 1.25; in experiment [3] (first compound 0.005 µM), 0.201; in experiment [3] (first compound 0.01581 µM) it was 0.264. The relative viability in experiment [3] (first compound 0.05 µM) came out at 0.203; in experiment [3] (first compound 0.1581 µM), 0.23; in experiment [3] (first compound 0.5 µM) it was 0.187; with Lestaurtinib + Olaparib (first compound 0.005 µM), 0.589; with Lestaurtinib + Olaparib (first compound 0.01581 µM), 0.725; in the experiment with Lestaurtinib + Olaparib (first compound 0.05 µM), 0.559. The figures for the relative viability with Lestaurtinib + Olaparib (first compound 0.1581 µM) and in the experiment with Lestaurtinib + Olaparib (first compound 0.5 µM) were 0.673 and 0.309, respectively.

Turning to NCI-H2126, the relative viability in experiment [1] (first compound 0.2 µM) is 0.774; in experiment [1] (first compound 0.6325 µM), 0.751; in experiment [1] (first compound 2 µM), 0.787; in experiment [1] (first compound 6.325 µM), 0.691; in experiment [1] (first compound 20 µM), 0.745; in experiment [2] (first compound 0.2 µM) it was 1.04. Moreover, the relative viability was 0.933 in experiment [2] (first compound 0.6325 µM); 1.08 in experiment [2] (first compound 2 µM); 0.862 in experiment [2] (first compound 6.325 µM); 1 in experiment [2] (first compound 20 µM); 0.625 in experiment [3] (first compound 0.005 µM); 0.6 in experiment [3] (first compound 0.01581 µM). For the same cell line, the relative viability in experiment [3] (first compound 0.05 µM) is 0.624; in experiment [3] (first compound 0.1581 µM), 0.52; in experiment [3] (first compound 0.5 µM), 0.578; with Lestaurtinib + Olaparib (first compound 0.005 µM), 1.03; with Lestaurtinib + Olaparib (first compound 0.01581 µM) it was 0.971; with Lestaurtinib + Olaparib (first compound 0.05 µM), 0.812. For the same cell line, the figures for the relative viability in the experiment with Lestaurtinib + Olaparib (first compound 0.1581 µM) and with Lestaurtinib + Olaparib (first compound 0.5 µM) were 0.852 and 0.842, respectively.

Regarding NCI-H2170, the relative viability in experiment [1] (first compound 0.2 µM) was determined as 0.301; in experiment [1] (first compound 0.6325 µM), 0.255; in experiment [1] (first compound 2 µM) it was 0.282; in experiment [1] (first compound 6.325 µM), 0.232; in experiment [1] (first compound 20 µM), 0.283; in experiment [2] (first compound 0.2 µM), 0.921. Moreover, the relative viability in experiment [2] (first compound 0.6325 µM) came to 0.923; in experiment [2] (first compound 2 µM), 0.866; in experiment [2] (first compound 6.325 µM), 0.714; in experiment [2] (first compound 20 µM), 0.764; in experiment [3] (first compound 0.005 µM), 0.896; in experiment [3] (first compound 0.01581 µM), 0.864. Further, the relative viability in experiment [3] (first compound 0.05 µM) was found to be 0.609; in experiment [3] (first compound 0.1581 µM) it was 0.764; in experiment [3] (first compound 0.5 µM) it was 0.31; with Lestaurtinib + Olaparib (first compound 0.005 µM) it was 0.551; with Lestaurtinib + Olaparib (first compound 0.01581 µM), 0.596; with Lestaurtinib + Olaparib (first compound 0.05 µM), 0.407. The relative viability came out at 0.45 in the experiment with Lestaurtinib + Olaparib (first compound 0.1581 µM) and 0.206 in the experiment with Lestaurtinib + Olaparib (first compound 0.5 µM).

Values taken from the supplement of paper PMC10307832.
